Source: patent US7321046B2, “Analogs of dictyostatin, intermediates therefor and methods of synthesis thereof” (University of Pittsburgh, priority 2002, dated 2008)
Where two headings read alike, the source gives them in different places.

Key:
[1] = tested on: 1A9/Ptx10 (Phe270 −> Val) β-tubulin mutant cells; assay: Antiproliferative assay (GI50, MTS), paclitaxel-resistant clone; type: cell-based, human; conditions: for fold-resistance: 1A9/Ptx10 versus parental 1A9
Protocol: (§1) Representative analogs were examined for their antiproliferative activities against human ovarian carcinoma 1A9 cells and their paclitaxel-resistant mutants, 1A9/Ptx10 and 1A9/Ptx22.
(§2) The effects of dictyostatin and its analogs on growth inhibition of parental (A549) and paclitaxel-resistant (1A9/Ptx10 and Ptx22) ovarian adenocarcinoma cell lines were evaluated following the antiproliferative assay protocol as described earlier (Minguez et al., 2003; Choy et al., 2003; Lazo et al., 2001). Cells were maintained in RPMI medium with 10% FBS in it, plated in tissue culture plates, and allowed to grow for 48-72 h before transferring them into 96-well plates. Cells were allowed to attach and grow for 48 h in 96-well plates after which they were treated with either control (DMSO) or drug in triplicate/quadruplicate. Cells were incubated with the compounds for 72 h. Cells were treated with MTS reagent before reading the plate in a Dynamax plate reader for determining the cell number. The fifty percent growth inhibition values (GI50 values) were calculated for the compounds against all the three cell lines.

[2] = tested on: 1A9/Ptx22 (Ala364 −> Thr) β-tubulin mutant cells; assay: as above; type: cell-based, human; conditions: for fold-resistance: 1A9/Ptx22 versus parental 1A9
Protocol: as §1, §2

[3] = tested on: human ovarian carcinoma cells (1A9); assay: Antiproliferative assay (GI50, MTS); type: cell-based; conditions: for antiproliferative potency / GI50 values (in words): Table 1 (1A9 and mutant lines)
Protocol: as §1
as §2, with “The effects of dictyostatin and its analogs on growth inhibition of parental (A549) and paclitaxel-resistant (1A9/Ptx10 and Ptx22) ovarian adenocarcinoma cell lines were evaluated following the antiproliferative assay protocol as described earlier (Minguez et al., 2003; Choy et al., 2003; Lazo et al., 2001).” left out

[4] = tested on: HeLa cells; assay: Multiparameter fluorescence high information content analysis of cellular effects; type: cell-based; set-up: unit not given here; conditions: 24 h treatment; for Minimum detectable cellular change, Nuclear condensation: Hoechst 33342
Protocol: HeLa cells were plated on collagen-coated 384-well microtiter plates, allowed to attach, then treated for 24 h with test agents. Test agent concentrations began at 1 μM, and two-fold dilutions were made to levels below 1 nM. After the treatment period, the cells were fixed with formalin and their chromatin stained with Hoechst 33342. Cells were permeabilized and treated with primary antibodies for α-tubulin and phosphohistone H3, and then with fluorophore-labeled secondary antibodies. The three fluorescent channels were then examined on an ArrayScan II, which gives quantitative pixel distribution and density information in each channel on a per cell basis.
HeLa cells growing at log phase were trypsinized and plated in 40 μL at a density of 7,000-8,000 cells per well in calf skin collagen I-coated 384-well plates (Falcon #3962; Fisher Scientific). Cells were exposed to test agents or 0.5% DMSO within 2-8 h of plating. Concentrated DMSO stock solutions of all test agents were diluted into solutions of HBSS medium plus 10% FBS and added to the microplate wells (10 μL per well), using an automated liquid handling system (Biomek® 2000; Beckman-Coulter, Inc.) to provide a serial 2-fold dilution of each test agent. The cells were incubated in the presence of test agents for 24 h. At the end of the incubation, the medium was removed and replaced with HBSS containing 4% formaldehyde and 10 μg/mL Hoechst 33342 (25 μL/well) to fix the cells and fluorescently label their chromatin. After incubation at room temperature for 20-30 min, the solution was removed from each well and replaced with HBSS (100 μL/well). Further reagent additions were made to the microplates using the Biomek 2000. After removing the HBSS from each well, cells were permeabilized for 5 min at room temperature with 0.5% (w/w) Triton X-100 in HBSS (10 μL/well). This step extracts a fraction of the soluble cellular components, including soluble tubulin. The wells were washed with HBSS (100 μL/well), followed by addition of a primary antibody solution containing mouse anti-α-tubulin (1:3000) and rabbit anti-phosphohistone H3 (1:500) in HBSS (10 μL/well). After 1 h at room temperature, the wells were washed with HBSS as above, followed by the addition of a secondary antibody solution containing fluorescein-5-isothiocyanate (FITC)-labeled donkey anti-mouse (1:300) and Cy3-labeled donkey anti-rabbit (1:300) antibodies diluted in HBSS (10 μL/well). After 1 h at room temperature, the wells were washed as above, and HBSS was added (100 μL/well). The plates were placed in an ArrayScan® HCS Reader with the Target Activation BioApplication Software coupled to Cellomics® Store and the vHCS™ Discovery Toolbox (Cellomics, Inc.) to analyze images. Briefly, the instrument was used to scan multiple optical fields, each with multiparameter fluorescence, within a subset of the wells of the 384-well microplate. The BioApplication software produced multiple numerical feature values, such as subcellular object intensities, shapes, and location for each cell within an optical field. […] A nuclear mask was generated from Hoechst 33342-stained nuclei, and object identification thresholds and shape parameters were set such that the algorithm identified over 90% of the nuclei in each field. Objects that touched each other or the edge of the image were excluded from the analysis. Tubulin mass was defined as the average green (FITC) pixel intensity in an area defined by the Hoechst-defined nuclear mask. This cytoplasmic area around the nucleus contains cytoskeletal components is a region from which sensitive measurements of cytoplasmic characteristics can be made.

[5] = tested on: T1, Bovine brain tubulin; assay: Pelleting assay (tubulin assembly EC50 determination); type: biochemical; conditions: tubulin 10 μM in 0.2 M MSG, 15 min at 20° C.; for EC50: concentration required to polymerize 50% of tubulin, read-out: EC50 (μM) ± SD (N)
T1 construct: Bovine brain tubulin (10 μM) in 0.2 M MSG, 15 min at 20° C
Protocol: Dictyostatin and representative analogs were evaluated in a quantitative assay for their ability to promote tubulin polymerization. […] When the percent polymer formed was determined in the reactions, a comparison of the activities of all the analogs could be made.
The assay was performed under three different reaction conditions following the procedure reported earlier (Gapud et al., 2004). Reaction condition 1 included 0.2 M monosodium glutamate (MSG), 10 μM tubulin, 5% DMSO and varying concentrations of test agents. Reaction condition 2 included 0.8 M MSG, 400 μM GTP, 10 μM tubulin, 5% DMSO, and varying concentrations of test agents. Reaction condition 3 had 0.6 M MSG, 200 μM GTP, and 10 μM tubulin, and 5% DMSO, and varying concentrations of the test agents. The experimental protocol for all the three reaction conditions was the following. The reaction mixtures were incubated at room temperature (20-22° C.) for 15 min and spun for 10 min at 14,000 rpm in an Eppendorf microtube centrifuge. Aliquots of the supernatants were removed and assayed for protein content by the method of Lowry.

[6] = tested on: microtubules (tubulin polymer); assay: Radiolabeled ligand binding assays; conditions: test agent 4 μM; radiolabel 4.0 μM; 37° C.
Protocol: The abilities of test agents to inhibit the binding of radiolabeled forms of the microtubule stabilizers paclitaxel, discodermolide and epothilone B from tubulin polymer were determined.
[^3H]Paclitaxel, [^3H]discodermolide and [^14C]epothilone B solutions were prepared as 125 μM stock solutions in 50% DMSO. Radiolabeled compound (final concentration, 4.0 μM) and test agents at final concentrations noted in the text and tables were mixed in 50 μL of 4:1 (v/v) 0.75 M aqueous MSG/DMSO and warmed to 37° C. Meanwhile, a reaction mixture containing 0.75 M MSG, 2.5 μM tubulin, and 25 μM ddGTP was prepared and incubated at 37° C. for 30 min to form microtubuless. A 200 μL aliquot of the microtubule mixture was added to the drug mixtures, and incubation continued for 30 min at 37° C. Reaction mixtures were centrifuged in an Eppendorf 5417C centrifuge at 14,000 rpm for 20 min at room temperature. Radiolabel in the supernatants (100 μL) was determined by scintillation spectrometry.

[7] = Homo sapiens, 1A9/ptx-10, 72 h, read-out: GI50 ± S.D., 1A9/Ptx10 (Phe270 −> Val), 72 h incubation
[8] = Homo sapiens, 1A9/ptx-22, 72 h, read-out: GI50 ± S.D., 1A9/Ptx22 (Ala364 −> Thr), 72 h incubation
[9] = Homo sapiens, Ovarian carcinoma cell, 72 h, read-out: GI50 ± S.D., 1A9 parental cells, 72 h incubation

Structure (SMILES) | fold-resistance [1] | fold-resistance [2] | antiproliferative potency / GI50 values (in words) [3] | Minimum detectable cellular change, Phosphohistone H3 [4] | Minimum detectable cellular change, Tubulin polymer intensity [4] | Minimum detectable cellular change, Nuclear condensation [4] | % Tubulin polymerized by 50 μM test agent [5] | EC50 [5] | Percent inhibition of radiolabel from microtubules, [3H]Paclitaxel [6] | Percent inhibition of radiolabel from microtubules, [3H]Discodermolide [6] | Percent inhibition of radiolabel from microtubules, [14C]Epothilone B [6] | GI50 [1, 7] | GI50 [2, 8] | GI50 [3, 9] | also measured
C=CC=CC(C)C1OC(=O)C=CC=CC(C)C(O)CC(O)C=CC(C)C(O)C(C)CC(C)CCC(O)C1C [Compound 100, 8(S),10(S),14(R),20(R)-Tetrahydroxy-7(S),13(S),15(R),17(S),21 (S)-pentamethyl-22(S)-(1(S)-methyl-penta-2,4-dienyl)-oxa-cyclodocosa-3(E),5(E),11(Z)-trien-2-one] | 2.5 fold | 2.5 fold | high nanomolar GI50 values | >5000 (4) | >5000 (4) | >5000 (4) | 1 ± 1% | > 50 µM | 0 ± 1% | – | – | – | – | – | GI50 ([1]; read-out: GI50 ± S.D., 1A9/Ptx10 (Phe270 −> Val), 72 h incubation): 780 ± 200 nM; GI50 ([2]; read-out: GI50 ± S.D., 1A9/Ptx22 (Ala364 −> Thr), 72 h incubation): 790 ± 560 nM; GI50 ([3]; read-out: GI50 ± S.D., 1A9 parental cells, 72 h incubation): 310 ± 40 nM
C/C(=C\c1csc(C)n1)[C@@H]1C[C@@H]2O[C@]2(C)CCC[C@H](C)[C@H](O)[C@@H](C)C(=O)C(C)(C)[C@@H](O)CC(=O)O1 [epothilone B] | – | – | – | – | – | – | – | – | – | 14 ± 3% | – | – | – | – | –
CC(=O)O[C@@]12CO[C@@H]1C[C@H](O)[C@@]1(C)C(=O)[C@H](O)C3=C(C)[C@@H](OC(=O)[C@H](O)[C@@H](NC(=O)OC(C)(C)C)c4ccccc4)C[C@@](O)([C@@H](OC(=O)c4ccccc4)[C@H]21)C3(C)C [docetaxel] | – | – | – | – | – | – | – | – | 63 ± 8 (4) % | 8 ± 6 (3) % | 36 ± 1 (3) % | – | – | – | –
C=CC=CC(C)C1OC(=O)C=CC=CC(C)C(O)CC(O)C=CC(C)C(O)C(C)CC(C)CCC(O)C1C [Compound 108, 8(S),10(S),14(R),20(S)-Tetrahydroxy-7(S),13(S),15(R),17(S),21(S)-pentamethyl-22(S)-(1(S)-methyl-penta-2,4-dienyl)oxacyclodocosa-3(Z),5(E),11(Z)-trien-2-one] | 0.9 fold | 1.1 fold | mid micromolar GI50 values | >5000 (4) | >5000 (4) | >5000 (4) | 5 ± 1% | > 50 µM | 0 ± 1% | – | – | 26000 nM | 30000 ± 1000 nM | 28000 ± 1000 nM | –
C=C/C=C\[C@H](C)[C@H](O)[C@@H](C)[C@H](CC[C@H](C)C[C@@H](C)[C@@H](O[Si](C)(C)C(C)(C)C)[C@@H](C)/C=C\[C@H](C[C@H](O[Si](C)(C)C(C)(C)C)[C@@H](C)/C=C/C=C\C(=O)O)O[Si](C)(C)C(C)(C)C)O[Si](C)(C)C(C)(C)C [Compound 107, (2Z,4E,6S,7S,9S,10Z,12S,13R,14R,16S,19S,20R,21S,22S,23Z)-7,9,13,19-tetrakis(tert-Butyldimethylsilyloxy)-21-hydroxy-6,12,14,16,20,22-hexamethylhexacosa-2,4,10,23,25-pentaenoic acid] | – | – | – | – | – | – | – | – | – | – | – | > 500 nM | > 500 nM | > 500 nM | –
C/C(=C\c1csc(C)n1)[C@@H]1C[C@@H]2O[C@@H]2CCC[C@H](C)[C@H](O)[C@@H](C)C(=O)C(C)(C)[C@@H](O)CC(=O)O1 [epothilone A] | – | – | – | – | – | – | – | – | 53 ± 4 (4) % | 6 ± 6 (3) % | 25 ± 3 (3) % | – | – | – | –
